# ChEMBL document CHEMBL1201862, “PubChem BioAssay data set” (2004)
#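 Grown in 96-well plates, cells were treated for 48 hours with each compound at five concentrations. Insufficient inhibition: endpoint recorded as highest concentration tested. GI50 marks 50% less growth.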 Calls of active or inactive are those of the source. Rule as the data show it: active = GI50 up to about 1.1 µM and inactive = higher.
# What was measured:
# Assay in all cases: inhibition of tumour cell growth, NCI panel, 48 h
# HOP-18 = system: HOP-18
# RXF 631 = system: RXF 631
# M19-MEL = system: M19-MEL
# DMS-273 = system: DMS-273
# LXFL 529 = system: LXFL 529
# XF498 = system: XF498
# KM-20L2 = system: KM-20L2
# DMS-114 = system: DMS-114
# SNB-78 = system: SNB-78
Compound,GI50 (HOP-18),GI50 (RXF 631),GI50 (M19-MEL),GI50 (DMS-273),GI50 (LXFL 529),GI50 (XF498),GI50 (KM-20L2),GI50 (DMS-114),GI50 (SNB-78)
COc1cc(/C=C2\Cc3ccccc3C2=O)cc(OC)c1OC,> 100 µM (inactive),> 100 µM (inactive),> 100 µM (inactive),> 100 µM (inactive),> 100 µM (inactive),> 100 µM (inactive),> 100 µM (inactive),> 100 µM (inactive),> 100 µM (inactive)
Cc1ccc2oc(=O)cc(CC(=O)O)c2c1,> 100 µM (inactive),> 100 µM (inactive),> 100 µM (inactive),> 100 µM (inactive),> 100 µM (inactive),24.5 µM (inactive),> 100 µM (inactive),,
CC(C)(C)C1CCN(C(=O)c2ccccc2)CC1,84.1 µM (inactive),,> 100 µM (inactive),> 100 µM (inactive),70 µM (inactive),< 0.01 µM (active),> 100 µM (inactive),28.8 µM (inactive),> 100 µM (inactive)
CCCCCCCCC1C(C)c2c([nH]c3ccccc23)C2C(=O)N(c3ccccc3)C(=O)C21 (centres undefined),,3.41 µM (inactive),15.7 µM (inactive),9.75 µM (inactive),16.5 µM (inactive),,11.2 µM (inactive),10.6 µM (inactive),9.62 µM (inactive)
O=c1/c(=C/c2cccc([N+](=O)[O-])c2)sc2nc3ccccc3n12,,,> 100 µM (inactive),> 100 µM (inactive),> 100 µM (inactive),> 100 µM (inactive),> 10 µM (inactive),> 100 µM (inactive),> 100 µM (inactive)
C/C=C/C=C\C(=O)C1c2cccc(O)c2C(=O)c2c(O)cc(C)cc21 (centres undefined),1.88 µM (inactive),,0.828 µM (active),1.65 µM (inactive),,0.232 µM (active),1.98 µM (inactive),0.383 µM (active),1.65 µM (inactive)
CC(C)(C)NNc1c([N+](=O)[O-])cnn(-c2ccccc2)c1=O,16.7 µM (inactive),,2.47 µM (inactive),3.2 µM (inactive),1.78 µM (inactive),2.55 µM (inactive),6.44 µM (inactive),,15.6 µM (inactive)
O=c1[nH]c2cc([N+](=O)[O-])ccc2nc1/C(=N\NO)C(O)c1ccc([N+](=O)[O-])cc1 (centres undefined),,> 100 µM (inactive),> 100 µM (inactive),> 100 µM (inactive),> 100 µM (inactive),> 100 µM (inactive),32.2 µM (inactive),32.6 µM (inactive),> 100 µM (inactive)
Cc1nc(-n2nc(-c3ccccc3)cc2-c2ccccc2)sc1C(=O)/C=C/c1ccc([N+](=O)[O-])cc1,> 100 µM (inactive),23 µM (inactive),20.3 µM (inactive),20.8 µM (inactive),,,33.7 µM (inactive),,61.9 µM (inactive)
CC12OC3(C)OC(=O)C(c4ccccc4)(O1)C3(C)O2 (centres undefined),> 100 µM (inactive),> 100 µM (inactive),> 100 µM (inactive),> 100 µM (inactive),> 100 µM (inactive),,> 100 µM (inactive),> 100 µM (inactive),> 100 µM (inactive)
C/C(=N\NS(=O)(=O)c1c(C)cc(C)cc1C)c1ccc[n+]([O-])n1,19.2 µM (inactive),27.5 µM (inactive),13.9 µM (inactive),16.2 µM (inactive),11.3 µM (inactive),,22.9 µM (inactive),17.3 µM (inactive),14.3 µM (inactive)
COc1ccc2oc(C(=O)O)c3c2c1CCC3,> 100 µM (inactive),,> 100 µM (inactive),> 100 µM (inactive),> 100 µM (inactive),> 100 µM (inactive),> 100 µM (inactive),> 100 µM (inactive),> 100 µM (inactive)
O=C(O)CCC1c2[nH]c3ccccc3c2CCN1Cc1ccccc1 (centres undefined),> 100 µM (inactive),> 100 µM (inactive),> 100 µM (inactive),> 100 µM (inactive),> 100 µM (inactive),,> 100 µM (inactive),> 100 µM (inactive),> 100 µM (inactive)
COc1ccc(/N=N/c2c(-c3ccccc3)nn(C(=O)CC(=O)Nc3ccc(OC)cc3)c2-c2ccccc2)cc1,84.3 µM (inactive),59.3 µM (inactive),> 100 µM (inactive),> 100 µM (inactive),60.5 µM (inactive),27 µM (inactive),,60 µM (inactive),34.6 µM (inactive)
O=C1Nc2cc(F)ccc2C1=O,> 100 µM (inactive),,> 100 µM (inactive),> 100 µM (inactive),> 100 µM (inactive),> 100 µM (inactive),> 100 µM (inactive),50.8 µM (inactive),> 100 µM (inactive)
CC12CCC3(OCCO3)C(OC(=O)c3ccccc3)=C1CCC21OCCO1 (centres undefined),> 100 µM (inactive),> 100 µM (inactive),> 100 µM (inactive),> 100 µM (inactive),> 100 µM (inactive),,> 100 µM (inactive),> 100 µM (inactive),> 100 µM (inactive)
O=C(O)CCSC(=O)Nc1ccccc1F,,,,> 100 µM (inactive),> 100 µM (inactive),,> 100 µM (inactive),> 100 µM (inactive),> 100 µM (inactive)
O=C1NC(=O)C(=O)C(c2nc3ccccc3s2)C1=O,> 100 µM (inactive),,> 100 µM (inactive),> 100 µM (inactive),> 100 µM (inactive),> 100 µM (inactive),> 100 µM (inactive),> 100 µM (inactive),> 100 µM (inactive)
NC(=O)OCC(COc1ccc(Cl)cc1)OC(=O)c1ccccc1Cl (centres undefined),26.1 µM (inactive),20.3 µM (inactive),,20.5 µM (inactive),24.1 µM (inactive),,19.3 µM (inactive),14.6 µM (inactive),36.1 µM (inactive)
CCC(CC)n1cc(C(=O)NC(=O)NCCCCCOC(=O)CCCCCCCCCCC(=O)OCCCCCNC(=O)NC(=O)c2cn(C(CC)CC)c(=O)[nH]c2=O)c(=O)[nH]c1=O,> 100 µM (inactive),> 100 µM (inactive),> 100 µM (inactive),> 100 µM (inactive),62.8 µM (inactive),> 100 µM (inactive),> 100 µM (inactive),> 100 µM (inactive),> 100 µM (inactive)
COC(=O)CCC(NC(=S)N/N=C/c1cccs1)C(=O)OC (centres undefined),> 100 µM (inactive),> 100 µM (inactive),> 100 µM (inactive),> 100 µM (inactive),> 100 µM (inactive),> 100 µM (inactive),> 100 µM (inactive),> 100 µM (inactive),> 100 µM (inactive)
NC(=O)CCC(Nc1c2ccccc2[n+]([O-])c2ccccc12)C(=O)O (centres undefined),16 µM (inactive),,77.3 µM (inactive),65 µM (inactive),31 µM (inactive),,> 100 µM (inactive),37.1 µM (inactive),> 100 µM (inactive)
COCNC(=NC#N)NCOC,> 100 µM (inactive),> 100 µM (inactive),> 59.8 µM (inactive),> 47.1 µM (inactive),> 100 µM (inactive),> 100 µM (inactive),> 76 µM (inactive),> 51.8 µM (inactive),
O=P(NC12CC3CC(CC(C3)C1)C2)(N1CC1)N1CC1,> 100 µM (inactive),,> 100 µM (inactive),6.07 µM (inactive),64.4 µM (inactive),,> 100 µM (inactive),50.9 µM (inactive),> 100 µM (inactive)
O=C1c2ccccc2CC1C1(O)C(=O)Nc2ccccc21 (centres undefined),,> 100 µM (inactive),> 100 µM (inactive),> 100 µM (inactive),> 100 µM (inactive),55.6 µM (inactive),> 100 µM (inactive),> 100 µM (inactive),> 100 µM (inactive)
CC(C(=O)c1ccc(Cl)cc1)C1OC(=O)C(Cl)=C1Cl (centres undefined),50.4 µM (inactive),> 100 µM (inactive),23 µM (inactive),,19.8 µM (inactive),20.5 µM (inactive),86.1 µM (inactive),26.2 µM (inactive),
CC(C)(C)[C@H]1CC[C@@](O)(c2ccccc2)CC1.CC(C)(C)[C@H]1CC[C@](O)(c2ccccc2)CC1,37.8 µM (inactive),,19.4 µM (inactive),15.3 µM (inactive),21.1 µM (inactive),< 0.01 µM (active),16.1 µM (inactive),21.1 µM (inactive),21.8 µM (inactive)
O=C1/C(=C/c2ccccc2)CNC/C1=C\c1ccccc1,11 µM (inactive),2.91 µM (inactive),1.02 µM (active),0.721 µM (active),1.49 µM (inactive),2.32 µM (inactive),1.39 µM (inactive),2.11 µM (inactive),10.4 µM (inactive)
